The NIST ThermoML archive (doi:10.1021/je034002l)
Numbers after ± are expanded uncertainties.

What was measured:
[1] = 101.3 kPa, Liquid
[2] = xn = mol fraction of the nth substance listed; conditions: 101.3 kPa, Liquid, x2 = 0

| SMILES | mass density ([1]; 293.15 K) | viscosity ([1]; 293.15 K) | mass density ([1]; 298.15 K) | viscosity ([1]; 298.15 K) | mass density ([1]; 303.15 K) | viscosity ([1]; 303.15 K) | mass density ([1]; 308.15 K) | viscosity ([1]; 308.15 K) | mass density ([1]; 313.15 K) | viscosity ([1]; 313.15 K) | mass density ([1]; 318.15 K) | viscosity ([1]; 318.15 K) | mass density ([1]; 323.15 K) | viscosity ([1]; 323.15 K) | mass density ([1]; 328.15 K) | viscosity ([1]; 328.15 K) | mass density ([1]; 333.15 K) | viscosity ([1]; 333.15 K) | also measured |
| --- | --- | --- | --- | --- | --- | --- | --- | --- | --- | --- | --- | --- | --- | --- | --- | --- | --- | --- | --- |
| CCCCCCCl [1-chlorohexane] | 878.52 ± 0.84 kg/m3 | 0.7704 ± 0.01 mPa·s | 873.75 ± 0.88 kg/m3 | 0.7173 ± 0.0096 mPa·s | 868.98 ± 0.91 kg/m3 | 0.6702 ± 0.0091 mPa·s | 864.21 ± 0.95 kg/m3 | 0.6283 ± 0.0086 mPa·s | 859.44 ± 0.99 kg/m3 | 0.591 ± 0.0082 mPa·s | 854.67 ± 1 kg/m3 | 0.558 ± 0.0078 mPa·s | 849.9 ± 1.1 kg/m3 | 0.5285 ± 0.0075 mPa·s | 845.12 ± 1.1 kg/m3 | 0.5019 ± 0.0072 mPa·s | 840.35 ± 1.1 kg/m3 | 0.4778 ± 0.0069 mPa·s | – |
| CCCCCC [hexane] | 659.44 ± 0.52 kg/m3 | 0.3163 ± 0.005 mPa·s | 654.93 ± 0.56 kg/m3 | 0.3036 ± 0.0049 mPa·s | 650.36 ± 0.6 kg/m3 | 0.2914 ± 0.0047 mPa·s | 645.74 ± 0.64 kg/m3 | 0.2797 ± 0.0046 mPa·s | 641.08 ± 0.68 kg/m3 | 0.2685 ± 0.0045 mPa·s | 636.37 ± 0.72 kg/m3 | 0.258 ± 0.0044 mPa·s | 631.61 ± 0.76 kg/m3 | 0.2482 ± 0.0043 mPa·s | 626.81 ± 0.8 kg/m3 | 0.2391 ± 0.0042 mPa·s | 621.95 ± 0.84 kg/m3 | 0.2308 ± 0.0041 mPa·s | – |
| CCCCCC [hexane] + CCCCCCCl | – | – | – | – | – | – | – | – | – | – | – | – | – | – | – | – | – | – | mass density ([2]; 293.15 K): 659.44 ± 0.52 kg/m3; viscosity ([2]; 293.15 K): 0.3163 ± 0.005 mPa·s; mass density ([2]; 298.15 K): 654.93 ± 0.56 kg/m3; viscosity ([2]; 298.15 K): 0.3036 ± 0.0049 mPa·s; mass density ([2]; 303.15 K): 650.36 ± 0.6 kg/m3; viscosity ([2]; 303.15 K): 0.2914 ± 0.0047 mPa·s; mass density ([2]; 308.15 K): 645.74 ± 0.64 kg/m3; viscosity ([2]; 308.15 K): 0.2797 ± 0.0046 mPa·s; mass density ([2]; 313.15 K): 641.08 ± 0.68 kg/m3; viscosity ([2]; 313.15 K): 0.2685 ± 0.0045 mPa·s; mass density ([2]; 318.15 K): 636.37 ± 0.72 kg/m3; viscosity ([2]; 318.15 K): 0.258 ± 0.0044 mPa·s; mass density ([2]; 323.15 K): 631.61 ± 0.76 kg/m3; viscosity ([2]; 323.15 K): 0.2482 ± 0.0043 mPa·s; mass density ([2]; 328.15 K): 626.81 ± 0.8 kg/m3; viscosity ([2]; 328.15 K): 0.2391 ± 0.0042 mPa·s; mass density ([2]; 333.15 K): 621.95 ± 0.84 kg/m3; viscosity ([2]; 333.15 K): 0.2308 ± 0.0041 mPa·s |
